Reference: patent publication US20140221374A1, “RAF KINASE INHIBITORS” (Ruga Corporation, priority 2011, published 2014)

Assays:
V600E-mutated B-RAF = V600E-mutated B-RAF (Homo sapiens, UniProt P15056, V600E); experiment: In vitro assay for inhibition of mutant B-RAF kinase (recombinant V600E-mutated B-RAF, MEK (K97R) substrate); assay type: biochemical; conditions: 10 nM recombinant V600E-mutated B-RAF
Protocol: The ability of compounds described herein to inhibit RAF kinase activity were determined from biochemical kinase inhibition assays using recombinant RAF proteins as known in the art.
Solutions of varying concentrations of test compounds or vehicle were added to 10 nM recombinant V600E-mutated B-RAF proteins incubated in the presence of different concentrations of ATP and […] (K97R) as substrate, as previously described (Wilhelm, S. M., et al., Cancer Res., 64: 7099-7109, 2004; Mason, C. S., et al.; EMBO J. 18: 2137-2.148, 1999; Marais, R., et al., J. Biol. Chem., 272: 4378-4383, 1997). At least triplicate determinations for each individual test compound concentration were made and data plotted as mean±standard deviation relative to the control vehicle.

[1] = system: A375 cells (V600E activated B-RAF); experiment: In vitro tumor cell growth inhibition, MTT, 72 hours; assay type: cell-based; conditions: Homo sapiens, A-375, 72 hours incubation
Protocol: Briefly, growth inhibition of cells containing V600E activated B-RAF (A375, Colo205) versus cell lines with wild-type B-RAF (A431) were measured under anchorage-dependent conditions using MTT (3-(4,5-dimethylthiazol-2-yl)-2,5-diphenyltetrazolium bromide), following 72 hours incubation with either compound or vehicle, as previously described (Haass, N. K., et al., Clinical Cancer Res., 14: 230-239, 2008): Cell lines are obtained from the American Type Tissue Culture Collection (Maryland, USA) and cultured in media containing heat-inactivated 10% fetal bovine serum. Cell cultures were also maintained in 10 U/mL, penicillin, 100 μg/mL streptomycin and 2 mM glutamine. At least triplicate determinations for each individual test compound concentration were made and data plotted as mean±standard deviation relative to the control vehicle.

V600E-mutated B-RAF, sequence (P15056 whole entry V600E): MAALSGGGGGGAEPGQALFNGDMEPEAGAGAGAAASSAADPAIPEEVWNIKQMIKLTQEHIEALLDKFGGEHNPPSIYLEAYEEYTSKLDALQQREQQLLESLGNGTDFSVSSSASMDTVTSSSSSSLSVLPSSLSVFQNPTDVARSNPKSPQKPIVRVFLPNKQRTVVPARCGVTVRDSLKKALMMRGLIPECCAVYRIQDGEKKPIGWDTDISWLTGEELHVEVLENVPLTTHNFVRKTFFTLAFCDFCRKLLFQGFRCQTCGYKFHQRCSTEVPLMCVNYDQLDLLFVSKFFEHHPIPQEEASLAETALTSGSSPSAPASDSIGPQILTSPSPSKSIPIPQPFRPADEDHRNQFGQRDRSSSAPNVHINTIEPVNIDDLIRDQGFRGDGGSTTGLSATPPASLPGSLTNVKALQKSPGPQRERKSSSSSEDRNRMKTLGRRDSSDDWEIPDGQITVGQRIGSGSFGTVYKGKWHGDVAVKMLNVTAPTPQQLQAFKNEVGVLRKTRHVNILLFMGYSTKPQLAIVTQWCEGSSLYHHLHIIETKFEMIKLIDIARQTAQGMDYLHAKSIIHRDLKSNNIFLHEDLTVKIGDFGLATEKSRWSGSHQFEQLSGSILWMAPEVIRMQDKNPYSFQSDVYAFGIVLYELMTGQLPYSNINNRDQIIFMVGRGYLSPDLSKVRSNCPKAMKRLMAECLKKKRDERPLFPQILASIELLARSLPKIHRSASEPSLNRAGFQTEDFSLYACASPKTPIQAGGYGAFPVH

Row | IC50 (V600E-mutated B-RAF) | IC50 [1] | SMILES
1 | ≤ 0.1 µM | 1 to 10 µM | O=C(Nc1ccc(C(F)(F)F)cc1)Nc1cccc(-c2sc(NCCN3CCOCC3)nc2-c2ccncc2)c1 [Example 37, 1-(3-(2-(2-morpholinoethylamino)-4-(pyridin-4-yl)thiazol-5-yl)phenyl)-3-(4-(trifluoromethyl)phenyl)urea]
2 | > 10 µM | – | CCn1cc(-c2cccc(NC(=O)Nc3ccc(S(=O)(=O)N4CCCC4)cc3)c2)c(-c2ccncc2)n1 [Example 58, 1-(3-(1-ethyl-3-(pyridin-4-yl)-1H-pyrazol-4-yl)phenyl)-3-(4-(pyrrolidin-1-ylsulfonyl)phenyl)urea]
3 | ≤ 0.1 µM | 1 to 10 µM | Cc1nc(-c2ccncc2)c(-c2cccc(NS(=O)(=O)c3cc(F)ccc3F)c2)s1 [Example 41, 2,5-Difluoro-N-[3-(2-methyl-4-pyridin-4-yl-thiazol-5-yl)-phenyl]-benzenesulfonamide]
4 | 1 to 10 µM | – | Cc1ccc(CC(=O)Nc2cccc(-c3sc(C(C)(C)C)nc3-c3ccncc3)c2)cc1 [Example 46, N-(3-(2-tert-butyl-4-(pyridin-4-yl)thiazol-5-yl)phenyl)-2-p-tolylacetamide]
5 | ≤ 0.1 µM | 1 to 10 µM | O=C(Nc1ccc(Cl)cc1)Nc1cccc(-c2sc(NCCN3CCOCC3)nc2-c2ccncc2)c1 [Example 34, 1-(4-chlorophenyl)-3-(3-(2-(2-morpholinoethylamino)-4-(pyridin-4-yl)thiazol-5-yl)phenyl)urea]
6 | ≤ 0.1 µM | – | COC(=O)N[C@@H](C)CNc1cc(-c2nc(C(C)(C)C)sc2-c2cccc(NC(=O)Nc3ccc(C)cc3)c2)ccn1 [Example 32, (S)-methyl 1-(4-(2-tert-butyl-5-(3-(3-p-tolylureido)phenyl)thiazol-4-yl)pyridin-2-ylamino)propan-2-ylcarbamate]
7 | ≤ 0.1 µM | – | Cc1nc(-c2ccncc2)c(-c2cccc(NC(=O)Nc3ccc(Cl)c(C(F)(F)F)c3)c2)s1 [Example 2, 1-(4-chloro-3-(trifluoromethyl)phenyl)-3-(3-(2-methyl-4-(pyridin-4-yl)thiazol-5-yl)phenyl)urea]
8 | ≤ 0.1 µM | – | O=C(Nc1ccc(Cl)cc1)Nc1cc(-c2sc(NCCN3CCOCC3)nc2-c2ccncc2)ccc1F [Example 36, 1-(4-chlorophenyl)-3-(2-fluoro-5-(2-(2-morpholinoethylamino)-4-(pyridin-4-yl)thiazol-5-yl)phenyl)urea]
9 | ≤ 0.1 µM | – | Cc1ccc(NC(=O)Nc2cccc(-c3sc(C(C)(C)C)nc3-c3ccnc(NCCN(C)C)c3)c2)cc1 [Example 30, 1-(3-(2-tert-butyl-4-(2-(2-(dimethylamino)ethylamino)pyridin-4-yl)thiazol-5-yl)phenyl)-3-p-tolylurea]
10 | 0.1 to 1 µM | – | Cc1ccc(NC(=O)Nc2cccc(-c3sc(C(C)(C)C)nc3-c3ccncc3)c2)cc1 [Example 27, 1-(3-(2-tert-butyl-4-(pyridin-4-yl)thiazol-5-yl)phenyl)-3-p-tolylurea]
11 | 0.1 to 1 µM | – | Nc1nc(-c2ccncc2)c(-c2cccc(NC(=O)Nc3ccc(C(F)(F)F)cc3)c2F)s1 [Example 38, 1-(3-(2-amino-4-(pyridin-4-yl)thiazol-5-yl)-2-fluorophenyl)-3-(4-(trifluoromethyl)phenyl)urea]
12 | 1 to 10 µM | – | Nc1nc(-c2ccncc2)c(-c2cccc(NC(=O)Nc3ccc(Cl)cc3)c2F)s1 [Example 39, 1-(3-(2-amino-4-(pyridin-4-yl)thiazol-5-yl)-2-fluorophenyl)-3-(4-chlorophenyl)urea]
13 | 0.1 to 1 µM | – | CC(C)(C)c1nc(-c2ccncc2)c(-c2cccc(NS(=O)(=O)c3c(F)cccc3F)c2)s1 [Example 44, N-(3-(2-tert-butyl-4-(pyridin-4-yl)thiazol-5-yl)phenyl)-2,6-difluorobenzenesulfonamide]
14 | ≤ 0.1 µM | – | Cc1nc(-c2ccncc2)c(-c2ccc(F)c(NC(=O)Nc3ccc(Cl)c(Cl)c3)c2)s1 [Example 11, 1-(3,4-dichlorophenyl)-3-(2-fluoro-5-(2-methyl-4-(pyridin-4-yl)thiazol-5-yl)phenyl)urea]
15 | 0.1 to 1 µM | – | Cc1nc(-c2ccnc(N)c2)c(-c2cccc(NC(=O)Nc3ccc(Cl)cc3)c2F)s1 [Example 23, 1-(3-(4-(2-aminopyridin-4-yl)-2-methylthiazol-5-yl)-2-fluorophenyl)-3-(4-chlorophenyl)urea]

Continued, compound first:

Row | SMILES | IC50 (V600E-mutated B-RAF) | IC50 [1]
16 | CCn1cc(-c2cccc(NC(=O)Nc3ccc(OC)cc3)c2)c(-c2ccncc2)n1 [Example 57, 1-(3-(1-ethyl-3-(pyridin-4-yl)-1H-pyrazol-4-yl)phenyl)-3-(4-methoxyphenyl)urea] | ≤ 0.1 µM | ≤ 0.1 µM
17 | Cc1ccc(NC(=S)Nc2cccc(-c3sc(C)nc3-c3ccncc3)c2)cc1 [Example 19, 1-(3-(2-methyl-4-(pyridin-4-yl)thiazol-5-yl)phenyl)-3-p-tolylthiourea] | ≤ 0.1 µM | –
18 | O=C(Nc1ccc(Cl)cc1)Nc1cccc(-c2sc(N3CCOCC3)nc2-c2ccncc2)c1 [Example 33, 1-(4-chlorophenyl)-3-(3-(2-morpholino-4-(pyridin-4-yl)thiazol-5-yl)phenyl)urea] | ≤ 0.1 µM | 1 to 10 µM
19 | Cc1nc(-c2ccncc2)c(-c2cccc(NC(=O)Nc3cc(F)ccc3F)c2)s1 [Example 5, 1-(2,5-difluorophenyl)-3-(3-(2-methyl-4-(pyridin-4-yl)thiazol-5-yl)phenyl)urea] | 0.1 to 1 µM | –
20 | CCn1cc(-c2cccc(NC(=O)Nc3ccc(S(C)(=O)=O)cc3)c2)c(-c2ccncc2)n1 [Example 51, 1-(3-(1-ethyl-3-(pyridin-4-yl)-1H-pyrazol-4-yl)phenyl)-3-(4-(methylsulfonyl)phenyl)urea] | ≤ 0.1 µM | 1 to 10 µM
21 | Cc1nc(-c2ccncc2)c(-c2ccc(F)c(NC(=O)Nc3ccc(Cl)cc3F)c2)s1 [Example 12, 1-(4-chloro-2-fluorophenyl)-3-(2-fluoro-5-(2-methyl-4-(pyridin-4-yl)thiazol-5-yl)phenyl)urea] | ≤ 0.1 µM | –
22 | CCn1cc(-c2cccc(NC(=O)Nc3ccc(S(=O)(=O)NC)cc3)c2)c(-c2ccncc2)n1 [Example 56, 4-(3-(3-(1-ethyl-3-(pyridin-4-yl)-1H-pyrazol-4-yl)phenyl)ureido)-N-methylbenzenesulfonamide] | ≤ 0.1 µM | > 10 µM
23 | Cc1nc(-c2ccncc2)c(-c2cccc(NC(=O)Nc3c(F)cccc3F)c2)s1 [Example 6, 1-(2,6-difluorophenyl)-3-(3-(2-methyl-4-(pyridin-4-yl)thiazol-5-yl)phenyl)urea] | 0.1 to 1 µM | –
24 | Cc1ccc(NC(=O)Nc2cccc(-c3sc(C(C)(C)C)nc3-c3ccnc(NCCO)c3)c2)cc1 [Example 29, 1-(3-(2-tert-butyl-4-(2-(2-hydroxyethylamino)pyridin-4-yl)thiazol-5-yl)phenyl)-3-p-tolylurea] | ≤ 0.1 µM | –
25 | Cc1ccc(NC(=O)Nc2ccc(F)c(-c3sc(C)nc3-c3ccncc3)c2)cc1 [Example 8, 1-(4-fluoro-3-(2-methyl-4-(pyridin-4-yl)thiazol-5-yl)phenyl)-3-p-tolylurea] | ≤ 0.1 µM | –
26 | Nc1nc(-c2ccncc2)c(-c2ccc(F)c(NC(=O)Nc3ccc(Cl)cc3)c2)s1 [Example 40, 1-(5-(2-amino-4-(pyridin-4-yl)thiazol-5-yl)-2-fluorophenyl)-3-(4-chlorophenyl)urea] | ≤ 0.1 µM | –
27 | COCCNc1cc(-c2nc(C(C)(C)C)sc2-c2cccc(NC(=O)Nc3ccc(C)cc3)c2)ccn1 [Example 28, 1-(3-(2-tert-butyl-4-(2-(2-methoxyethylamino)pyridin-4-yl)thiazol-5-yl)phenyl)-3-p-tolylurea] | 1 to 10 µM | –
28 | Cc1nc(-c2ccncc2)c(-c2cccc(NS(=O)(=O)c3c(F)cccc3F)c2)s1 [Example 42, 2,6-difluoro-N-(3-(2-methyl-4-(pyridin-4-yl)thiazol-5-yl)phenyl)benzenesulfonamide] | 0.1 to 1 µM | –
29 | Cc1ccc(NC(=O)Nc2cccc(-c3sc(C(C)(C)C)nc3-c3ccnc(NCCN4CCCC4)c3)c2)cc1 [Example 31, 1-(3-(2-tert-butyl-4-(2-(2-(pyrrolidin-1-yl)ethylamino)pyridin-4-yl)thiazol-5-yl)phenyl)-3-p-tolylurea] | ≤ 0.1 µM | –
30 | Cc1nc(-c2ccncc2)c(-c2cccc(NC(=O)Nc3ccc(F)cc3)c2)s1 [Example 4, 1-(4-fluorophenyl)-3-(3-(2-methyl-4-(pyridin-4-yl)thiazol-5-yl)phenyl)urea] | 0.1 to 1 µM | –
31 | Cc1nc(-c2ccncc2)c(-c2cccc(NC(=O)Nc3ccc(Cl)cc3)c2F)s1 [Example 18, 1-(4-chlorophenyl)-3-(2-fluoro-3-(2-methyl-4-(pyridin-4-yl)thiazol-5-yl)phenyl)urea] | 0.1 to 1 µM | –
32 | Cc1ccc(CC(=O)Nc2cccc(-c3sc(C)nc3-c3ccnc(N)c3)c2)cc1 [Example 45, N-[3-(2-Methyl-4-(2-aminopyridin-4-yl)-thiazol-5-yl)-phenyl]-p-tolylacetamide] | 0.1 to 1 µM | –
33 | Cc1nc(-c2ccnc(N)c2)c(-c2cccc(NS(=O)(=O)c3c(F)cccc3F)c2)s1 [Example 43, N-(3-(4-(2-aminopyridin-4-yl)-2-methylthiazol-5-yl)phenyl)-2,6-difluorobenzenesulfonamide] | 1 to 10 µM | –
